Data on one compound can be found in patent US20220226258A1, “COMPOSITIONS AND METHODS USING THYMOL AND/OR CARVACROL FOR INDUCTION OF AUTOPHAGY” (SOCIETE DES PRODUITS NESTLE S.A., priority 2019, published 2022).

Assay [1] has as its system liver steatosis in obese mice. The experiment in a line: Chronic treatment on a model of obesity (high fat diet), liver Oil Red O staining. Format: in vivo. The conditions noted are these: thymol 20 mg/kg/day for 8 weeks, FIG. 4. How it is done:
Mice were fed with high fat diet (Research Diets D12492: 60% fat, 20% protein, 20% carbohydrates) for 8 weeks. Mice were sacrificed by isofluorane inhalation followed by exsanguination. Livers were collected, embedded in OCT and frozen in isopentane. In order to visualize lipid droplets, liver sections of 10 μm were cut and stained by Oil Red O. Lipids size was calculated using imageJ software

Another assay deals with human Jurkat cells. As to the kind of experiment: Autophagic flux (LC3-II, flow cytometry) in Jurkat cells. Format: cell-based. The conditions noted are these: thymol 1.95 to 250 μM, LC3-II median fluorescence intensity, FIG. 1. How it is done: The human lymphocytic T cell line Jurkat (clone E6.1, ATCC TIB-152) has been used to measure autophagic flux in vitro. Cells were grown in RPMI medium with standard conditions (5% CO2, 37° C.) in a humidified atmosphere. For the experiment, cells were washed, counted and incubated at 1*105/well in duplicate in a 96-flat bottom well plate. Experimental conditions included negative controls (0.5% DMSO), rapamycin treatment as positive control (1 uM) and Earle's Balanced Salt Solution (EBSS) as a starvation medium. Cells received Thymol (in RPMI) at different concentrations ranging from 1.95 μM to 250 μM. In parallel, the same experimental conditions were prepared for the incubation with solution A, from the Flow Cellect Autophagy Kit from Merck, now Guava Autophagy LC3 antibody-based kit. The treatment with compound A blocks the lysosomal degradation of LC3 vesicles and is used to measure autophagic flux. Cells were incubated with thymol at 37° for 1.30 h. Solution A was added for additional 30 minutes. Cells were then transferred in a 96 V bottom plate for the LC3 antibody detection using the Guava Autophagy LC3 antibody-based kit, according the manufacturer's instructions. […] Offline analysis was performed with FCS Express Software and results were expressed as the median fluorescence intensity in the FITC channel (related to the amount of LC3-II present in the cells.)
(In flow cytometry, cells or beads pass a laser one at a time.)

A further assay has as its system zebrafish larvae. As to the kind of experiment: Autophagy reporter zebrafish line (LC3-ZsGreen punctae in skeletal muscle). The conditions noted are these: 16 hours of treatment, LC3 punctae with and without ammonium chloride, FIG. 2. Format: in vivo. How it is done: After 16 hours of treatment larvae were anesthetized with 0.016% tricaine and imaged with ImageXpress confocal system at 20× magnification (Molecular Devices). Z stack images were captured for each larva and maximal projection images were produced. Ammonium chloride was added for additional 4 hours to block lysosomal degradation. Images were acquired again as before. In order to quantify autophagic flux, number of LC3 punctae have been calculated in presence and in absence of ammonium chloride with MetaXpress software (Molecular Devices) and normalized by zebrafish area.

In the case of `Cc1ccc(C(C)C)c(O)c1` [thymol], the liver steatosis result in assay [1] is given as “reduction of liver steatosis”. Moreover, the figures for the “concentration from which thymol induced autophagy in a dose dependent manner” value with human Jurkat cells and in the assay on zebrafish larvae were at least 125 µM and at least 50 µM, respectively.
